{"source": "ChEMBL document CHEMBL1201862", "about": "“PubChem BioAssay data set” (2004)", "key": {"[1]": {"molecular_target": "DNA (cytosine-5)-methyltransferase 1 (Homo sapiens, UniProt P26358)", "sequence (P26358 whole entry)": "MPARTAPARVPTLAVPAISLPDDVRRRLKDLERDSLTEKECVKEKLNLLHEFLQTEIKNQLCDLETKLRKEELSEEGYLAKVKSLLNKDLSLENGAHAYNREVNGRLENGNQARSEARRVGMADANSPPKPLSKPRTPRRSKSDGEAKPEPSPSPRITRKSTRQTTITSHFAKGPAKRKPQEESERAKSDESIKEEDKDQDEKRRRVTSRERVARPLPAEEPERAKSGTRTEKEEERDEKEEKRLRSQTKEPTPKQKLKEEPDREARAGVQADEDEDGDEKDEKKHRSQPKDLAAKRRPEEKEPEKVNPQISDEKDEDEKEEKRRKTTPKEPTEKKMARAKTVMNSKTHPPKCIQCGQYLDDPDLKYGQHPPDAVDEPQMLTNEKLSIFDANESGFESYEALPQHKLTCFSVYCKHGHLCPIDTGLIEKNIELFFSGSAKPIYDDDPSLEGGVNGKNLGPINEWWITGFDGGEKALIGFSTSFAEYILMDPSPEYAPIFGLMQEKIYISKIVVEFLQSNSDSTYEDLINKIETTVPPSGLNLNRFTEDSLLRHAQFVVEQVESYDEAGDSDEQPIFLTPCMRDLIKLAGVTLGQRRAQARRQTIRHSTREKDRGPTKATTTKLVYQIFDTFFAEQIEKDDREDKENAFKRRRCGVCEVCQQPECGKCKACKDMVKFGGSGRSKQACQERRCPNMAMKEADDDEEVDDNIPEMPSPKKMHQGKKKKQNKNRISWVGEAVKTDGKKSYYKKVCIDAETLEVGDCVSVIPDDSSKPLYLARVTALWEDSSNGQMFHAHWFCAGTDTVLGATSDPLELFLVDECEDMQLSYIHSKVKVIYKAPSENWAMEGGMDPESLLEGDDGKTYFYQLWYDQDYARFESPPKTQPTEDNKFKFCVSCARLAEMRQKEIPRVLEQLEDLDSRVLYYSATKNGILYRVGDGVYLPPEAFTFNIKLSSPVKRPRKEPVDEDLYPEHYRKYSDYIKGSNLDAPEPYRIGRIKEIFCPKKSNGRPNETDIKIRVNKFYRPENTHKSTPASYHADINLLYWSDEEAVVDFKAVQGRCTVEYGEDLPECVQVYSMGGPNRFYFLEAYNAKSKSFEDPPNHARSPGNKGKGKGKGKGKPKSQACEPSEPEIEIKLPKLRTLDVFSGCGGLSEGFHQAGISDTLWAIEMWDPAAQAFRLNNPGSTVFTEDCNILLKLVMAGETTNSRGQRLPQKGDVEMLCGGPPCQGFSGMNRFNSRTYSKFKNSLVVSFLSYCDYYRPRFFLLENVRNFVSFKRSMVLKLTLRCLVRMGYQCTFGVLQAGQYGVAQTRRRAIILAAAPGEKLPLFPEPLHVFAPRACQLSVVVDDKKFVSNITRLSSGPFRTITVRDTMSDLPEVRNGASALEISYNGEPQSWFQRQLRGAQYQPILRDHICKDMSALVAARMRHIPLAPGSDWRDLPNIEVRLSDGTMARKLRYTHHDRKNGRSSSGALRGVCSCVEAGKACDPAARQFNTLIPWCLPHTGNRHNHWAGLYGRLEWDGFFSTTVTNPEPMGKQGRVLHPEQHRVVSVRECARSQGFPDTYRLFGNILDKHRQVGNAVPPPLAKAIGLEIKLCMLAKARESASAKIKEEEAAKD", "assay": "DNMT1 methyltransferase inhibitors, confirmation, biochemical, fluorescent molecular beacon (AID 602386)", "type": "functional"}, "[2]": {"molecular_target": "Genome polyprotein (dengue virus type 2, UniProt P29990)", "sequence (P29990 2492-3391 limits assumed)": "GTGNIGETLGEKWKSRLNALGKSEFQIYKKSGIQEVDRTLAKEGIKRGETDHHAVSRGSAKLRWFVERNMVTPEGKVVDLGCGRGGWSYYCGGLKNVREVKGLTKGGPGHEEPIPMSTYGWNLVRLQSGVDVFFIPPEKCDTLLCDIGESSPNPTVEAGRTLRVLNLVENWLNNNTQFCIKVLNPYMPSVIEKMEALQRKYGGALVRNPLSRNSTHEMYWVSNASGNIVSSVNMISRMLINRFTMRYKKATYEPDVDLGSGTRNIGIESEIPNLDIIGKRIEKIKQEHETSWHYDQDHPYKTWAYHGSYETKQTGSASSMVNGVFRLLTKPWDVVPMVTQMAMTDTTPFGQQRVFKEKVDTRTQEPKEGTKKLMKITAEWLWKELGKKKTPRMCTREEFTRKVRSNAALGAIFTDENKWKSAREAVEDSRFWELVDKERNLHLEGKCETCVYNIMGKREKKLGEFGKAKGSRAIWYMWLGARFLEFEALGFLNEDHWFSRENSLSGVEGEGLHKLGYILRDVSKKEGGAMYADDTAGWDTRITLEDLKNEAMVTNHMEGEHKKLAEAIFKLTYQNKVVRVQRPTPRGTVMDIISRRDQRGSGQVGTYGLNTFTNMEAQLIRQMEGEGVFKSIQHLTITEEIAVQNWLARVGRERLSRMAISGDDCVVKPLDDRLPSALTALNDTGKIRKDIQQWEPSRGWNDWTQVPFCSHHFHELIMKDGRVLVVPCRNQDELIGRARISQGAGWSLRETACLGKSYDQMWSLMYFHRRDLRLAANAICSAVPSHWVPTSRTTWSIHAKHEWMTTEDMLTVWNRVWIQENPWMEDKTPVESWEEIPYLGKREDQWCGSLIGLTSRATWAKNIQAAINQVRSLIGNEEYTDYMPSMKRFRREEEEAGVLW", "assay": "Dengue-2 NS5 methyltransferase inhibitors, primary screen, biochemical, confirmation dose response (AID 588689)", "type": "functional"}, "[3]": {"molecular_target": "T1, Small ubiquitin-related modifier 2 (Homo sapiens, UniProt P61956)", "T1 sequence (P61956 whole entry)": "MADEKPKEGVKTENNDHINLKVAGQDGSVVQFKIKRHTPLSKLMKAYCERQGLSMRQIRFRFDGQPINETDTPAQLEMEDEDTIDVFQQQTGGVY", "assay": "inhibitors of SUMO2 protein-protein interaction, dose response, selectivity assay for SUMO1 interaction inhibitor project, biochemical, FRET, human SUMO2, uHTS hits (AID 624384)", "type": "functional", "settings": "read-out: IC50_Mean"}, "[4]": {"molecular_target": "T2, Small ubiquitin-related modifier 1 (Homo sapiens, UniProt P63165)", "T2 sequence (P63165 whole entry)": "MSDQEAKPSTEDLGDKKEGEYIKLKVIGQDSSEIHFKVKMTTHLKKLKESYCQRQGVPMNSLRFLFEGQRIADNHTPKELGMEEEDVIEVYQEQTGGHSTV", "assay": "inhibitors of SUMO1 peptide binding, dose response, biochemical, fluorescence polarization, uHTS hits (AID 624382)", "type": "functional", "settings": "read-out: IC50_Mean"}, "[5]": {"molecular_target": "T1, Small ubiquitin-related modifier 2", "assay": "SUMO2–SIM peptide binding inhibitors, dose response, selectivity assay for SUMO1 interaction inhibitor project, biochemical, fluorescence polarization, uHTS hits (AID 624385)", "type": "functional", "settings": "read-out: IC50_Mean"}, "[6]": {"molecular_target": "T2, Small ubiquitin-related modifier 1", "assay": "inhibitors of SUMO1 partner interactions, dose response, biochemical, FRET (AID 624383)", "type": "functional", "settings": "read-out: IC50_Mean"}, "[7]": {"assay": "ARNT/TACC3 interaction disruptors, potency, confirmation, biochemical, AlphaScreen, cherry-picked samples (AID 651703);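 also: His-tagged ARNT PAS-B domain paired with GST-TACC3 E629A dimer coactivator fragment; potency of inhibitors that break up the complex and lower AlphaScreen signal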", "type": "functional, Homo sapiens"}, "[8]": {"molecular_target": "T3, Long-chain-fatty-acid--AMP ligase FadD28 (Mycobacterium tuberculosis, UniProt P9WQ59)", "T3 sequence (P9WQ59 whole entry)": "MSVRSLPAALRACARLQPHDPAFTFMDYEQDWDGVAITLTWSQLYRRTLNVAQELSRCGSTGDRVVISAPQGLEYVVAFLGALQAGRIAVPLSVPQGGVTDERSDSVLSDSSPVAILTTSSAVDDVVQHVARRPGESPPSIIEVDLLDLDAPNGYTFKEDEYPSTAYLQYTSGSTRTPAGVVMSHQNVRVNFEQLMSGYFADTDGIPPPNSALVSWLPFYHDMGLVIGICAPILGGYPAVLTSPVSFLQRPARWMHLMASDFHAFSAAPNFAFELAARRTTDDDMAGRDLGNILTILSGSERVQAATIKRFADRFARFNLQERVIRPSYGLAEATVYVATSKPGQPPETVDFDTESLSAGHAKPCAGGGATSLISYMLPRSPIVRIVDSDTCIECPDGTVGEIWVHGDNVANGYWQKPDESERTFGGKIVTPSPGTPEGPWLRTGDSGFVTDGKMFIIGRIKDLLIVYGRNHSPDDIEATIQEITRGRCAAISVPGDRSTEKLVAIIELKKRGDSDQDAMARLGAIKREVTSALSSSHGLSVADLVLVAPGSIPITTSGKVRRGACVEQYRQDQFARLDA", "assay": "Fluorescence polarization aasay to screen for inhibitors that compete for the binding of FadD28 to a bisubstrate Measured in Biochemical System Using Plate Reader - 2147-01_Inhibitor_Dose_CherryPick_Activity.", "type": "functional, Mycobacterium tuberculosis H37Rv"}, "[9]": {"molecular_target": "T4, Histone-lysine N-methyltransferase NSD2 (Homo sapiens, UniProt O96028)", "T4 sequence (O96028 whole entry)": "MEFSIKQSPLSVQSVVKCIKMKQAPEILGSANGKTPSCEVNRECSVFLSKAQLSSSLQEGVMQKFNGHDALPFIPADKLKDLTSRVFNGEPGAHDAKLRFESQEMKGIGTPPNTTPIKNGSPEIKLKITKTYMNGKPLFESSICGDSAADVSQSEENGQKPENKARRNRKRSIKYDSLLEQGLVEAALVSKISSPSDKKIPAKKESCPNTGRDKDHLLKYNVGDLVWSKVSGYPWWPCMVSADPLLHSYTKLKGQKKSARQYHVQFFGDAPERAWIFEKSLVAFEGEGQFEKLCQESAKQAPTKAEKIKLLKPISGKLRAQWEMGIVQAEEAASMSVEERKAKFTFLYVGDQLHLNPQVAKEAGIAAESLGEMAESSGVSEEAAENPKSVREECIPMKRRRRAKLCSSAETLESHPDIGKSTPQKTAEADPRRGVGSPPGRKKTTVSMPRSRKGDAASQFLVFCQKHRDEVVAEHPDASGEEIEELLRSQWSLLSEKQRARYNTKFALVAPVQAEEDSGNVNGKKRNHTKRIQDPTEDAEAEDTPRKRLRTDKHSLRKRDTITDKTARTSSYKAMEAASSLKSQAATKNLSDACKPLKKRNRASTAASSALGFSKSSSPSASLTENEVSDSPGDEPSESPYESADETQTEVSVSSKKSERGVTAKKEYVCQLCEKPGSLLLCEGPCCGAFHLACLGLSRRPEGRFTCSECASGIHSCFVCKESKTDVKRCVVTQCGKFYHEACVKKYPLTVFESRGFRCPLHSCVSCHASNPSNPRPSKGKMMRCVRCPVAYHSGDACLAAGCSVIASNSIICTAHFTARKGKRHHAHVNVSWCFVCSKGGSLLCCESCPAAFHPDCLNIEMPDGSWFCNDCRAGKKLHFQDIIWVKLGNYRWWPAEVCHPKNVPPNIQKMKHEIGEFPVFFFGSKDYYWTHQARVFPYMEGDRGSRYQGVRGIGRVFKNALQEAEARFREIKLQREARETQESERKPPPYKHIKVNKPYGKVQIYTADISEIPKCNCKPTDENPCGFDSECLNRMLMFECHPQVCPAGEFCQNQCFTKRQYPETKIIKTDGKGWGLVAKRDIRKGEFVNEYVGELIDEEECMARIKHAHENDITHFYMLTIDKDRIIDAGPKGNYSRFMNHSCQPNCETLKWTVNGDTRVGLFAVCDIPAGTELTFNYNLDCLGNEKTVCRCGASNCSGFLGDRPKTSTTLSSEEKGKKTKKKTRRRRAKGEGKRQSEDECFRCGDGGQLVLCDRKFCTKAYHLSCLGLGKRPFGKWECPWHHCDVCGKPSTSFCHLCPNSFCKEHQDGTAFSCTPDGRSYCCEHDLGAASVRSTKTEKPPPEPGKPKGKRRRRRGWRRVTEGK", "type": "biochemical"}, "[10]": {"molecular_target": "Tyrosine-protein phosphatase non-receptor type 11 (Homo sapiens, UniProt Q06124)", "sequence (Q06124 whole entry)": "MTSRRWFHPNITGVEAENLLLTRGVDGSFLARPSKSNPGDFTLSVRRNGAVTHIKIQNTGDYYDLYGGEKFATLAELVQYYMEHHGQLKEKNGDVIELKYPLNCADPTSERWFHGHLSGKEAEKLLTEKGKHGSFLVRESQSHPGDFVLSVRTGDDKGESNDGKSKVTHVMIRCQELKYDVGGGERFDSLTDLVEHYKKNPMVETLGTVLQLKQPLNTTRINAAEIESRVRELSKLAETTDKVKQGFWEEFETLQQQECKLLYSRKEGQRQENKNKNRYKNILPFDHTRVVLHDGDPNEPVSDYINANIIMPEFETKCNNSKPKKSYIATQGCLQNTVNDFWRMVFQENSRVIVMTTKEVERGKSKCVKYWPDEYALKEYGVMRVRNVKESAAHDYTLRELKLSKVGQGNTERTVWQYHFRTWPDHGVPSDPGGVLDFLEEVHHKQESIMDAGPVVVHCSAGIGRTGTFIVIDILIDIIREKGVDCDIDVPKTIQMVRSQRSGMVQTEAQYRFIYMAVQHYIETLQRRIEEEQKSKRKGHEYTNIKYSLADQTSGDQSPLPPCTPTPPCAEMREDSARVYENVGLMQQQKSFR", "assay": "SHP2 phosphatase inhibition, dose response, selectivity assay for STEP inhibitor project, biochemical (AID 602367)", "type": "functional", "settings": "read-out: IC50_Mean"}, "[11]": {"molecular_target": "Tyrosine-protein phosphatase non-receptor type 5 (Homo sapiens, UniProt P54829)", "sequence (P54829 whole entry)": "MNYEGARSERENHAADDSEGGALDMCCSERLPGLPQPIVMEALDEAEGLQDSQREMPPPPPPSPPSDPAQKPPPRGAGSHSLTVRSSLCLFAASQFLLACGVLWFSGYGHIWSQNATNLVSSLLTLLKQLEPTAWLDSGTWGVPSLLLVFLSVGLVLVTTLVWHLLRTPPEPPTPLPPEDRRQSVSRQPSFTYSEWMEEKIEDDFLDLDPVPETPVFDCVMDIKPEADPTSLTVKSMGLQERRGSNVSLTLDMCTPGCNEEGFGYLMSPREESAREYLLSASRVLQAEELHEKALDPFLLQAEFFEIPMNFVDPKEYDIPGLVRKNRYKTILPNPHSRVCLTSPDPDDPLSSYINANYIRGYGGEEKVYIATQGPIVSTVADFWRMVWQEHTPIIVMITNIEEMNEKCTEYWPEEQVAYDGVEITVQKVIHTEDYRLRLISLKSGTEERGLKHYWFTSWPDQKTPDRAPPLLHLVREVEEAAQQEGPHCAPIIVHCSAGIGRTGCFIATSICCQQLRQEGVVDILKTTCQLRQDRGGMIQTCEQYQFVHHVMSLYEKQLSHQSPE", "assay": "STEP phosphatase inhibitors, confirmation, biochemical, fluorescence intensity, uHTS hits (AID 602372)", "type": "functional", "settings": "read-out: IC50_Mean"}, "[12]": {"molecular_target": "Dual specificity protein phosphatase 3 (Homo sapiens, UniProt P51452)", "sequence (P51452 whole entry)": "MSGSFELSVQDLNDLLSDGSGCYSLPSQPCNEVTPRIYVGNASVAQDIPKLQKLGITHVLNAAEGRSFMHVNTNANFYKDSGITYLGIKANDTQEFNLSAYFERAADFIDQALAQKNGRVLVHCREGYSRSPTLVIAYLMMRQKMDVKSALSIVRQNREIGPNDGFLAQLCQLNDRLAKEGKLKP", "assay": "VHR phosphatase inhibition, dose response, selectivity assay for STEP inhibitor project, biochemical (AID 602374)", "type": "functional", "settings": "read-out: IC50_Mean"}, "[13]": {"molecular_target": "T5, Beta-lactamase (Pseudomonas aeruginosa, UniProt Q79MP6)", "T5 sequence (Q79MP6 whole entry)": "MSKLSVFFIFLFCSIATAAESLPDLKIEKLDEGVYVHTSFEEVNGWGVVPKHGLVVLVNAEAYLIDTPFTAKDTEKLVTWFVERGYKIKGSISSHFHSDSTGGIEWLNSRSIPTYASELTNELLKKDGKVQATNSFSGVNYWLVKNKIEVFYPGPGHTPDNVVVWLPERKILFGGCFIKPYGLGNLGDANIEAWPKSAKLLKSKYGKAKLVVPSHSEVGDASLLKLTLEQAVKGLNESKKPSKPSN", "assay": "IMP-1 metallo-beta-lactamase inhibitors, dose response, selectivity assay for VIM-2 inhibitor project, biochemical, epi-absorbance (AID 1920)"}, "[14]": {"molecular_target": "T6, Beta Lactamase (Pseudomonas aeruginosa, UniProt Q932Y6)", "T6 sequence (Q932Y6 whole entry)": "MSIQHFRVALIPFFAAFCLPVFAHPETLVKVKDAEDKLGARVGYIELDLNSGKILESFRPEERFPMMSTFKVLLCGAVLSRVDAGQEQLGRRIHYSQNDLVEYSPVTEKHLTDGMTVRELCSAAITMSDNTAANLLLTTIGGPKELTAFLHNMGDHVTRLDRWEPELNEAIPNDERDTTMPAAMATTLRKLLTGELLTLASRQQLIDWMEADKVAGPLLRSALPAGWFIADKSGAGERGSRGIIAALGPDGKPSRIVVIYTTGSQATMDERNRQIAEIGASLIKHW", "assay": "VIM-2 metallo-beta-lactamase inhibitor potency, dose response, biochemical, epi-absorbance readout, selective inhibitors (AID 1919)"}, "[15]": {"molecular_target": "T5, Beta-lactamase", "assay": "[…] counterscreen for selective VIM-2 inhibitors: dose response biochemical high throughput screening assay to identify inhibitors of IMP-1 metallo-beta-lactamase."}, "[16]": {"molecular_target": "T7, Beta-lactamase (Salmonella choleraesuis (strain SC-B67), UniProt Q5J463)", "T7 sequence (Q5J463 whole entry)": "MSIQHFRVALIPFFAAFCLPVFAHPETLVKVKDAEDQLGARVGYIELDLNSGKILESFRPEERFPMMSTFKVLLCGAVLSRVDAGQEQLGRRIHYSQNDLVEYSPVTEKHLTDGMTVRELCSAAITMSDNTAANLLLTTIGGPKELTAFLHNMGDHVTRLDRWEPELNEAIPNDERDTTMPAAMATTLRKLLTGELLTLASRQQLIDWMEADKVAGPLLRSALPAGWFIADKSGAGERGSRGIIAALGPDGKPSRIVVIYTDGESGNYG", "assay": "Epi-absorbance-based counterscreen for selective VIM-2 inhibitors: dose response biochemical high throughput screening assay to identify inhibitors of TEM-1 serine-beta-lactamase."}, "[17]": {"molecular_target": "T6, Beta Lactamase", "assay": "VIM-2 inhibitor FRET-based artefact check, dose response, artefact control for selective VIM-2 inhibitor project, biochemical, FRET readout, CCF2 substrate (AID 1926)"}, "[18]": {"molecular_target": "T7, Beta-lactamase"}, "[19]": {"molecular_target": "T5, Beta-lactamase"}}, "note": "The source made the active and inactive calls."}
{"compound": "CN(c1ccccc1)c1ccc(/C=C(/CCC(=O)O)c2nc3ccccc3s2)cc1[N+](=O)[O-]", "values": [{"measurement": "IC50", "setting": "[1]", "result": "9.98 µM (active)"}, {"measurement": "IC50", "setting": "[2]", "result": "48.5 µM (active)"}, {"measurement": "IC50", "setting": "[3]", "result": "> 66 µM (inactive)"}, {"measurement": "IC50", "setting": "[4]", "result": "11.1 µM (active)"}, {"measurement": "IC50", "setting": "[5]", "result": "6.2 µM (active)"}, {"measurement": "IC50", "setting": "[6]", "result": "51.8 µM (inactive)"}]}
{"compound": "C[C@H]1CN([C@@H](C)CO)C(=O)c2cc(NC(=O)Nc3cccc4ccccc34)ccc2O[C@@H]1CN(C)C(=O)Nc1ccc(C(F)(F)F)cc1", "values": [{"measurement": "AC50", "setting": "[7]", "result": "108 µM (active)"}]}
{"compound": "CC(C(=O)Nc1ccc(O)cc1C(=O)O)N1C(=O)/C(=C\\c2cccs2)SC1=S", "note": "(stereo not given)", "values": [{"measurement": "IC50", "setting": "[2]", "result": "47.9 µM (active)"}, {"measurement": "AC50", "setting": "[8]", "result": "49.3 µM (active)"}, {"measurement": "AC50", "setting": "[9]", "result": "> 20 µM (inactive)"}, {"measurement": "IC50", "setting": "[10]", "result": "1.5 µM (active)"}, {"measurement": "IC50", "setting": "[11]", "result": "20.5 µM (inactive)"}, {"measurement": "IC50", "setting": "[12]", "result": "5.64 µM (active)"}]}
{"compound": "CCc1nnc(S)n1/N=C/c1ccc(NC(C)=O)cc1", "values": [{"measurement": "IC50", "setting": "[13]", "result": "> 59.6 µM (inactive)"}, {"measurement": "IC50", "setting": "[14]", "result": "6.32 µM (active)"}, {"measurement": "IC50", "setting": "[15]", "result": "> 59.6 µM (inactive)"}, {"measurement": "IC50", "setting": "[16]", "result": "> 59.6 µM (inactive)"}, {"measurement": "IC50", "setting": "[17]", "result": "2.08 µM (active)"}]}
{"compound": "COc1ccc(-c2cc(=O)oc3c(C)c(OCC(=O)NCCCn4ccnc4)ccc23)cc1", "values": [{"measurement": "IC50", "setting": "[18]", "result": "> 59.6 µM (inactive)"}, {"measurement": "IC50", "setting": "[19]", "result": "> 59.6 µM (inactive)"}]}
